According to patent publication US11400063B2, “Early administration of low-dose colchicine after myocardial infarction” (INSTITUT DE CARDIOLOGIE DE MONTREAL, priority 2019, dated 2022):

Key:
[1] = system: patients with CAD; experiment: Meta-analysis of RCTs of colchicine for secondary cardiovascular prevention (pooled); type: in vivo, human
Experimental: Medline (PUBMED), EMBASE, and Cochrane central were searched to identify RCTs comparing colchicine to placebo or no colchicine for secondary cardiovascular prevention (inception to Sep. 1, 2020). To maximized sensitivity, citation chasing was performed in Google Scholar, Scopus, and Web of Science. Secondary prevention was defined as patients with clinically manifest or established CAD. Query terms included “colchicine”, “coronary artery disease”, “acute coronary syndrome”, “myocardial infarction”, “cardiovascular disease”, “atherosclerosis”, and “secondary prevention”, either separately or in combination.
RCTs that met the following criteria were included in the meta-analysis: 1) compared daily use of low-dose (0.5 mg) colchicine to placebo or no colchicine for secondary cardiovascular prevention; 2) the study reported at least one of the following outcomes: cardiovascular death, MI, stroke, cardiac arrest, or urgent coronary revascularization; 3) other than the trial medication, patients in both arms were treated in accordance to guideline directed medical therapy; 4) the minimum follow-up was at least 1 year; and 5) trials were published in a peer-reviewed scientific journal. Review articles, editorials, meta-analyses, observational studies, and published abstracts were excluded from the present meta-analysis.
Using standardized forms, data on study characteristics, patient characteristics, and outcomes were extracted on the intent-to-treat population independently by two reviewers from each eligible study. The Cochrane Collaboration risk-of-bias tool for randomized trials was used to evaluate study quality. The meta-analysis was conducted in accordance to the Preferred Reporting Items for Systematic Reviews and Meta-Analyses (PRISMA) guidelines.
The primary efficacy endpoint was a composite of cardiovascular death, MI, ischemic stroke, and urgent coronary revascularization. Secondary efficacy endpoints consisted of the components of the primary endpoint, composite of cardiovascular death, MI, and ischemic stroke, as well as deep vein thrombosis or pulmonary embolus, and atrial fibrillation (AF). To maximize consistency in pooling efficacy endpoints among trials, the primary and secondary composite efficacy and stroke endpoints in COLCOT were modified to meet the definition of primary and stroke endpoints of the LoDoCo2 trial. Therefore, adjudicated events of resuscitated cardiac arrest and non-ischemic stroke in COLCOT were excluded from the pooled primary endpoint. The component endpoint of stroke was also restricted to include only ischemic strokes. Incidence rates and hazards ratios (HRs) were calculated for the new primary composite endpoint and ischemic stroke endpoint using individual patient data from COLCOT.
Safety outcomes were limited to serious adverse events (SAEs) and included all-cause and non-cardiovascular mortality, hospitalization for gastrointestinal event, infection, and pneumonia, as well as diagnosis of cancer. Incidence of SAEs were recalculated for COLCOT using the intent-to-treat population.
The DerSimonian and Laird random-effects model was used to calculate the pooled HR and corresponding 95% confidence intervals (CI) for primary and secondary endpoints in the overall trial and in subgroup analyses of the primary endpoint. For safety outcomes, the DerSimonian and Laird random-effects model was used to compute risk ratios (RR) and corresponding 95% CIs. Heterogeneity was evaluated with the Higgins I^2 statistic. I^2 values of <25%, 25-75%, and >75% were considered to indicate low, moderate, and high degrees of heterogeneity, respectively. In subgroup analyses, the Qb statistic was calculated to determine inconsistency and variability in the treatment effect between strata. Publication and small study bias were assessed with the Egger's regression test and visually by asymmetry in funnel plots. […]

[2] = system: patients with stable coronary disease; conditions: cited from earlier work
[3] = system: patients with acute coronary syndromes (ACS); conditions: COPS, cited from earlier work
[4] = colchicine vs placebo or no colchicine
[5] = LoDoCo, colchicine vs control (no colchicine)

Compound: COc1cc2c(c(OC)c1OC)-c1ccc(OC)c(=O)cc1[C@@H](NC(C)=O)CC2 [Colchicine, colchicine]
- AF diagnoses and AF episodes, pooled HR [1, 4]: 0.86
- MIs, pooled HR [1, 4]: 0.62
- all-cause mortality, pooled RR [1, 4]: 1.04
- ischemic strokes, pooled HR [1, 4]: 0.38
- non-cardiovascular mortality, pooled RR [1, 4]: 1.38
- urgent coronary revascularization, pooled HR [1, 4]: 0.58
- primary composite endpoint (cardiovascular mortality, MI, ischemic stroke, urgent coronary revascularization), pooled HR ([1]; colchicine vs placebo or no colchicine, random-effects model): 0.68
- cardiovascular mortality, difference between arms ([1]; pooled RCTs): no statistically significant difference
- reduction in the incidence of major cardiovascular events ([1]; pooled RCTs): 32%
- risk reduction for MIs ([1]; pooling HRs from the RCTs): 38%
- risk reduction for ischemic strokes ([1]; pooling HRs from the RCTs): 62%
- risk reduction for urgent coronary revascularization ([1]; pooling HRs from the RCTs): 44%
- Myocardial infarction, Events N ([2]; LoDoCo, N = 250, median follow-up 24 months): 4 N
- Ischemic stroke, HR (95% CI) [2, 5]: 0.23 (0.03-2.03)
- Myocardial infarction, HR (95% CI) [2, 5]: 0.25 (0.08-0.76)
- Ischemic stroke, Events % ([2]; LoDoCo): 0.4%
- Ischemic stroke, Events N ([2]; LoDoCo): 1 N
- Myocardial infarction, Events % ([2]; LoDoCo): 1.6%
- cardiovascular events vs those not receiving colchicine ([2]; colchicine 0.5 mg once daily, 532 patients, not placebo-controlled): fewer cardiovascular events
- Primary composite outcome (cardiovascular mortality, myocardial infarction, ischemic stroke, urgent revascularization), Events N ([3]; N = 396, median follow-up 12 months): 19 N
- Cardiovascular mortality, HR (95% CI) ([3]; colchicine vs placebo): 3.09 (0.32-29.71)
- Ischemic stroke, HR (95% CI) ([3]; colchicine vs placebo): 0.34 (0.07-1.70)
- Myocardial infarction, HR (95% CI) ([3]; colchicine vs placebo): 0.52 (0.25-1.07)
- Primary composite outcome, HR (95% CI) ([3]; colchicine vs placebo): 0.47 (0.27-0.82)
- Urgent coronary revascularization, HR (95% CI) ([3]; colchicine vs placebo): 0.26 (0.07-0.92)
- all-cause mortality, HR ([3]; colchicine vs placebo): 8.20
- Cardiovascular mortality, Events % [3]: 0.8%
- Cardiovascular mortality, Events N [3]: 3 N
- Ischemic stroke, Events % [3]: 0.5%
- Ischemic stroke, Events N [3]: 2 N
- Myocardial infarction, Events % [3]: 3.7%
- Myocardial infarction, Events N [3]: 11 N
- Primary composite outcome, Events % [3]: 4.8%
- Urgent coronary revascularization, Events % [3]: 0.8%
- Urgent coronary revascularization, Events N [3]: 3 N
